Measurements reported in US4175125A, “Method for treating methicillin resistant staphylococcus aureus” (Eli Lilly and Company, priority 1978, dated 1979).
In brackets after ≈: the same amount, converted by molar mass.

Assays:
[1] = tested on: Staphylococcus aureus cultures; assay: Agar dilution susceptibility test, phenylthioacetyl cephalosporins vs methicillin resistant S. aureus (Example 9); assay type: cell-based; conditions: for MIC: Staphylococcus aureus, read-out: MIC; for effectiveness in in vitro tests vs methicillin, cephalothin and cephaloridine: various cultures of methicillin-resistant Staphylococcus aureus
Description: This example compares the antibiotic activities of three known compounds, methicillin, cephalothin, and cephaloridine, with three compounds from the above examples, in terms of minimum inhibitory concentration (MIC) values in microgram/milliliter units against various isolates of Staphylococcus aureus cultures. The culture numbers and the procedures used to obtain the reported data are disclosed by W. E. Wick and D. A. Preston in their article "Heterogeneous Methicillin-Resistant Staphylococcus Aureus" which appeared in Progress in Antimicrobial And Anticancer Chemotherapy, Proceedings of the 6th International Congress of Chemotherapy, Volume, 1, U. of Tokyo Press, Tokyo, (1970). In these agardilution susceptibility tests, the inocula were diluted to 10^3 bacteria per spot. Cultures 3055 (benzylpenicillin sensitive) and H232 (benzylpenicillin-resistant) are controls. The remaining cultures are methicillin-resistant, and, except for 3136, are clinical isolates. Culture 3136 is a 4th transfer laboratory selected mutant.

[2] = tested on: Staphylococcus aureus cultures; assay: Broth dilution MIC in trypticase soy broth, low and high NaCl (Example 10); assay type: cell-based; conditions: Staphylococcus aureus, TSB, read-out: MIC
Method: This example compares the antibiotic activities of methicillin, cephalothin and cephaloridine with the compounds of Examples 1, 2 and 3, in broth dilution tests. The MIC values, in μg/ml., are against the same Staphylococcus aureus cultures described in Example 9, except that in this example the cultures were grown in trypticase soy broth (TSB). Growing the cultures in two broth cultures, one having a low (0.5 percent) sodium chloride content and one having a high (5.0 percent) sodium chloride content is said to assist in identifying the methicillin-resistant cultures from those which are not methicillin-resistant. […] See Chabbert, Y. A., 1967 Postgrad. Med. J., 43 (suppl); 40-46. One expects that similar changes in MIC values for this type of culture to other β-lactam antibiotics, e.g., various penicillins and cephalosporins, to have similar implications. […] That is, methicillin-resistant S.aureus cultures are susceptible to the cephalosporin antibiotics used in this invention.

[3] = culture 3055 (control, benzylpenicillin sensitive), table part marked b
[4] = culture 3055 (control, benzylpenicillin sensitive), table part marked c
[5] = culture 3130, table part marked b
[6] = culture 3130, table part marked c
[7] = culture 3131, table part marked b
[8] = culture 3131, table part marked c
[9] = culture 3132, table part marked b
[10] = culture 3132, table part marked c
[11] = culture 3133, table part marked b
[12] = culture 3133, table part marked c
[13] = culture 3134, table part marked b
[14] = culture 3134, table part marked c
[15] = culture 3135, table part marked b
[16] = culture 3135, table part marked c
[17] = culture 3136, table part marked b
[18] = culture 3136, table part marked c
[19] = culture 3137, table part marked b
[20] = culture 3137, table part marked c
[21] = culture 3138, table part marked b
[22] = culture 3138, table part marked c
[23] = culture 3139, table part marked b
[24] = culture 3139, table part marked c
[25] = culture (Seattle) 966, table part marked b
[26] = culture (Seattle) 966, table part marked c
[27] = culture H232 (control, benzylpenicillin-resistant), table part marked b
[28] = culture H232 (control, benzylpenicillin-resistant), table part marked c
[29] = culture Kavarmark 1138501, table part marked b
[30] = culture Kavarmark 1138501, table part marked c
[31] = culture S61, table part marked b
[32] = culture S61, table part marked c
[33] = culture 3055 (control), table part marked b
[34] = culture 3055 (control), table part marked c
[35] = culture 3132 (first column so headed), table part marked b
[36] = culture 3132 (first column so headed), table part marked c
[37] = culture 3132 (second column so headed), table part marked b
[38] = culture 3132 (second column so headed), table part marked c
[39] = culture H232 (control), table part marked b
[40] = culture H232 (control), table part marked c
[41] = culture Kavarnick 1138501, table part marked b
[42] = culture Kavarnick 1138501, table part marked c

CC(=O)OCC1=C(C(=O)O)N2C(=O)C(NC(=O)CSc3cc(Cl)ccc3Cl)C2SC1 (stereo not drawn) [Example 2, 7-(2,5-Dichlorophenylthioacetamido)-cephalosporanic acid] showed an MIC [1, 3] of under 0.06 µg/mL, an MIC [1, 4] of under 0.06 µg/mL and an MIC [1, 5] of 0.5 µg/mL (≈ 1.02 µM). For the same compound, the MIC [1, 6] was 2 µg/mL (≈ 4.07 µM), the MIC [1, 7] was 0.5 µg/mL (≈ 1.02 µM) and the MIC [1, 8] was 1 µg/mL (≈ 2.04 µM). For the same compound, the MIC [1, 9] was 0.5 µg/mL (≈ 1.02 µM), the MIC [1, 10] was 0.5 µg/mL (≈ 1.02 µM) and the MIC [1, 11] was 1 µg/mL (≈ 2.04 µM). For the same compound, the MIC [1, 12] was 2 µg/mL (≈ 4.07 µM), the MIC [1, 13] was 1 µg/mL (≈ 2.04 µM) and the MIC [1, 14] was 2 µg/mL (≈ 4.07 µM). The MIC [1, 15] was 0.5 µg/mL (≈ 1.02 µM), the MIC [1, 16] was 1 µg/mL (≈ 2.04 µM) and the MIC [1, 17] was 0.5 µg/mL (≈ 1.02 µM). For the same compound, the MIC [1, 18] was 1 µg/mL (≈ 2.04 µM), the MIC [1, 19] was 2 µg/mL (≈ 4.07 µM) and the MIC [1, 20] was 4 µg/mL (≈ 8.14 µM). It also gave an MIC [1, 21] of 1 µg/mL (≈ 2.04 µM), an MIC [1, 22] of 1 µg/mL (≈ 2.04 µM) and an MIC [1, 23] of 1 µg/mL (≈ 2.04 µM). For the same compound, the MIC [1, 24] was 0.5 µg/mL (≈ 1.02 µM), the MIC [1, 25] was 0.5 µg/mL (≈ 1.02 µM) and the MIC [1, 26] was 0.25 µg/mL (≈ 0.509 µM). The MIC [1, 27] was under 0.06 µg/mL, the MIC [1, 28] was under 0.06 µg/mL and the MIC [1, 29] was 0.5 µg/mL (≈ 1.02 µM). The MIC [1, 30] was 1 µg/mL (≈ 2.04 µM), the MIC [1, 31] was 0.5 µg/mL (≈ 1.02 µM) and the MIC [1, 32] was 1 µg/mL (≈ 2.04 µM). The “effectiveness in in vitro tests vs methicillin, cephalothin and cephaloridine” value [1] was “substantially more effective than methicillin, cephalothin, and cephaloridine”, the MIC [2, 33] was 0.06 µg/mL (≈ 0.122 µM) and the MIC [2, 34] was 0.06 µg/mL (≈ 0.122 µM). For the same compound, the MIC [2, 5] was 1 µg/mL (≈ 2.04 µM), the MIC [2, 6] was 8 µg/mL (≈ 16.3 µM) and the MIC [2, 7] was under 0.5 µg/mL. For the same compound, the MIC [2, 8] was 2 µg/mL (≈ 4.07 µM), the MIC [2, 35] was under 0.5 µg/mL and the MIC [2, 36] was 2 µg/mL (≈ 4.07 µM). It also gave an MIC [2, 37] of under 0.5 µg/mL, an MIC [2, 38] of 2 µg/mL (≈ 4.07 µM) and an MIC [2, 13] of 2 µg/mL (≈ 4.07 µM). It also gave an MIC [2, 14] of 4 µg/mL (≈ 8.14 µM), an MIC [2, 15] of under 0.5 µg/mL and an MIC [2, 16] of 2 µg/mL (≈ 4.07 µM). The MIC [2, 17] was 0.25 µg/mL (≈ 0.509 µM), the MIC [2, 18] was 4 µg/mL (≈ 8.14 µM) and the MIC [2, 19] was 2 µg/mL (≈ 4.07 µM). It also gave an MIC [2, 20] of 4 µg/mL (≈ 8.14 µM), an MIC [2, 21] of 2 µg/mL (≈ 4.07 µM) and an MIC [2, 22] of 2 µg/mL (≈ 4.07 µM). It also gave an MIC [2, 23] of 0.5 µg/mL (≈ 1.02 µM), an MIC [2, 24] of under 0.5 µg/mL and an MIC [2, 25] of 0.5 µg/mL (≈ 1.02 µM). The MIC [2, 26] was 2 µg/mL (≈ 4.07 µM), the MIC [2, 39] was 0.12 µg/mL (≈ 0.244 µM) and the MIC [2, 40] was 0.25 µg/mL (≈ 0.509 µM). The MIC [2, 41] was 0.5 µg/mL (≈ 1.02 µM), the MIC [2, 42] was 2 µg/mL (≈ 4.07 µM) and the MIC [2, 31] was 0.5 µg/mL (≈ 1.02 µM). The MIC [2, 32] was 2 µg/mL (≈ 4.07 µM), the MIC ([2]; culture S, table part marked b) was 0.5 µg/mL (≈ 1.02 µM) and the MIC ([2]; culture S, table part marked c) was 2 µg/mL (≈ 4.07 µM).

Compound CC(=O)OCC1=C(C(=O)O)N2C(=O)C(NC(=O)CSc3cc(Cl)cc(Cl)c3)C2SC1 (stereo not drawn) [Example 3, 7-(3,5-Dichlorophenylthioacetamido)-cephalosporanic acid] has an MIC [1, 3] of under 0.06 µg/mL, an MIC [1, 4] of under 0.06 µg/mL and an MIC [1, 5] of 0.5 µg/mL (≈ 1.02 µM). For the same compound, the MIC [1, 6] was 1 µg/mL (≈ 2.04 µM), the MIC [1, 7] was 0.5 µg/mL (≈ 1.02 µM) and the MIC [1, 8] was 2 µg/mL (≈ 4.07 µM). The MIC [1, 9] was 0.25 µg/mL (≈ 0.509 µM), the MIC [1, 10] was 0.5 µg/mL (≈ 1.02 µM) and the MIC [1, 11] was 1 µg/mL (≈ 2.04 µM). For the same compound, the MIC [1, 12] was 1 µg/mL (≈ 2.04 µM), the MIC [1, 13] was 0.5 µg/mL (≈ 1.02 µM) and the MIC [1, 14] was 1 µg/mL (≈ 2.04 µM). The MIC [1, 15] was 0.5 µg/mL (≈ 1.02 µM), the MIC [1, 16] was 1 µg/mL (≈ 2.04 µM) and the MIC [1, 17] was 0.25 µg/mL (≈ 0.509 µM). The MIC [1, 18] was 2 µg/mL (≈ 4.07 µM), the MIC [1, 19] was 2 µg/mL (≈ 4.07 µM) and the MIC [1, 20] was 4 µg/mL (≈ 8.14 µM). For the same compound, the MIC [1, 21] was 2 µg/mL (≈ 4.07 µM), the MIC [1, 22] was 1 µg/mL (≈ 2.04 µM) and the MIC [1, 23] was 0.5 µg/mL (≈ 1.02 µM). It also gave an MIC [1, 24] of 1 µg/mL (≈ 2.04 µM), an MIC [1, 25] of 0.25 µg/mL (≈ 0.509 µM) and an MIC [1, 26] of 0.5 µg/mL (≈ 1.02 µM). The MIC [1, 27] was under 0.06 µg/mL, the MIC [1, 28] was under 0.06 µg/mL and the MIC [1, 29] was 0.5 µg/mL (≈ 1.02 µM). For the same compound, the MIC [1, 30] was 2 µg/mL (≈ 4.07 µM), the MIC [1, 31] was 0.5 µg/mL (≈ 1.02 µM) and the MIC [1, 32] was 2 µg/mL (≈ 4.07 µM). For the same compound, the “effectiveness in in vitro tests vs methicillin, cephalothin and cephaloridine” value [1] was “substantially more effective than methicillin, cephalothin, and cephaloridine”, the MIC [2, 33] was 0.06 µg/mL (≈ 0.122 µM) and the MIC [2, 34] was 0.06 µg/mL (≈ 0.122 µM). For the same compound, the MIC [2, 5] was under 0.5 µg/mL, the MIC [2, 6] was 2 µg/mL (≈ 4.07 µM) and the MIC [2, 7] was under 0.5 µg/mL. For the same compound, the MIC [2, 8] was 1 µg/mL (≈ 2.04 µM), the MIC [2, 35] was under 0.5 µg/mL and the MIC [2, 36] was 1 µg/mL (≈ 2.04 µM). For the same compound, the MIC [2, 37] was under 0.5 µg/mL, the MIC [2, 38] was 2 µg/mL (≈ 4.07 µM) and the MIC [2, 13] was 1 µg/mL (≈ 2.04 µM). It also gave an MIC [2, 14] of 2 µg/mL (≈ 4.07 µM), an MIC [2, 15] of under 0.5 µg/mL and an MIC [2, 16] of 2 µg/mL (≈ 4.07 µM). It also gave an MIC [2, 17] of 0.5 µg/mL (≈ 1.02 µM), an MIC [2, 18] of 2 µg/mL (≈ 4.07 µM) and an MIC [2, 19] of 2 µg/mL (≈ 4.07 µM). For the same compound, the MIC [2, 20] was 4 µg/mL (≈ 8.14 µM), the MIC [2, 21] was 1 µg/mL (≈ 2.04 µM) and the MIC [2, 22] was 2 µg/mL (≈ 4.07 µM). For the same compound, the MIC [2, 23] was 2 µg/mL (≈ 4.07 µM), the MIC [2, 24] was 2 µg/mL (≈ 4.07 µM) and the MIC [2, 25] was 1 µg/mL (≈ 2.04 µM). The MIC [2, 26] was 8 µg/mL (≈ 16.3 µM), the MIC [2, 39] was 0.12 µg/mL (≈ 0.244 µM) and the MIC [2, 40] was 0.12 µg/mL (≈ 0.244 µM). The MIC [2, 41] was 0.5 µg/mL (≈ 1.02 µM), the MIC [2, 42] was 1 µg/mL (≈ 2.04 µM) and the MIC [2, 31] was 0.5 µg/mL (≈ 1.02 µM). The MIC [2, 32] was 1 µg/mL (≈ 2.04 µM), the MIC ([2]; culture S, table part marked b) was 0.5 µg/mL (≈ 1.02 µM) and the MIC ([2]; culture S, table part marked c) was 2 µg/mL (≈ 4.07 µM).
